The results in this text go back to ChEMBL document CHEMBL1150375, “Novel inhibitors of the v-raf murine sarcoma viral oncogene homologue B1 (BRAF) based on a 2,6-disubstituted pyrazine scaffold” (J Med Chem, 2008).

Bounds are passed on as bounds.

RAF proto-oncogene serine/threonine-protein kinase, sequence (P04049 whole entry): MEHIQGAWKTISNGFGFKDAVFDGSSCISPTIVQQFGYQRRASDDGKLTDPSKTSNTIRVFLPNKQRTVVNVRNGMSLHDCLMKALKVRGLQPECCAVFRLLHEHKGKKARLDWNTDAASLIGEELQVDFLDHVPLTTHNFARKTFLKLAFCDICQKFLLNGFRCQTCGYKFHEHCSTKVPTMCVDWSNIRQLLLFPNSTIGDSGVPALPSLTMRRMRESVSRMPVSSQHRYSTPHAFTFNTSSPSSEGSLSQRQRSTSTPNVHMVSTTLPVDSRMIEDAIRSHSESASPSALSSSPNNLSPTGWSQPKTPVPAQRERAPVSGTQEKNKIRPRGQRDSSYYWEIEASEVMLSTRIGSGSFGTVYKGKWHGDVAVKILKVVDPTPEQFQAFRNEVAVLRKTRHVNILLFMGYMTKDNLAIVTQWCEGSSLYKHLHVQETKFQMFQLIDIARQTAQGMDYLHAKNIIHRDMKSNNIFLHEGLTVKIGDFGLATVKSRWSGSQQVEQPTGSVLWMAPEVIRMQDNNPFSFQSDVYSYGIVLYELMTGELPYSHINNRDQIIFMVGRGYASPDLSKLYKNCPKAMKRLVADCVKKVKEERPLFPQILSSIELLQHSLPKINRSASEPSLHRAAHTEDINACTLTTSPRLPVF

Test system in the first experiment: not listed separately
Put plainly: Selectivity ratio of IC50 for CRAF to IC50 for human BRAF V600E mutant.
Turning to `COc1cc(Nc2cncc(-c3ccc(NC(=O)Nc4ccccc4)cc3)n2)cc(OC)c1OC`, the Ratio IC50 was over 86.

Regarding `COc1cc(Nc2cncc(Oc3ccc(NC(C)=O)c4ccccc34)n2)cc(OC)c1OC`, the Ratio IC50 amounted to 36.

In the case of `CC(=O)Nc1cccc2c(Oc3cncc(Nc4cccc(-c5cnco5)c4)n3)cccc12`, the Ratio IC50 came out at 11.

In the case of `CC(=O)Nc1ccc(Oc2cncc(Nc3cccc(-c4cnco4)c3)n2)c2ccccc12`, the Ratio IC50 was 5.

In the case of `COc1cc(Nc2cncc(-c3ccc(C(N)=O)cc3)n2)cc(OC)c1OC`, the Ratio IC50 amounted to 34.

The next experiment concerns the target RAF proto-oncogene serine/threonine-protein kinase (Homo sapiens, UniProt P04049). As to the kind of experiment: Inhibition of CRAF.
For orientation: IC50 means the concentration at which inhibition is half-maximal. High values mean lower potency, low ones higher potency. The compound `COc1cc(Nc2cncc(-c3ccc(NC(=O)Nc4ccccc4)cc3)n2)cc(OC)c1OC` displayed an IC50 of over 100 µM.

Compound `COc1cc(Nc2cncc(Oc3ccc(NC(C)=O)c4ccccc34)n2)cc(OC)c1OC` displayed an IC50 of 20.3 µM. This counts as double-digit micromolar.

Regarding `CC(=O)Nc1cccc2c(Oc3cncc(Nc4cccc(-c5cnco5)c4)n3)cccc12`, the IC50 was found to be 6.96 µM.

On to `CC(=O)Nc1ccc(Oc2cncc(Nc3cccc(-c4cnco4)c3)n2)c2ccccc12`, for which 1.52 µM corresponded to half-maximal inhibition (IC50).

`COc1cc(Nc2cncc(-c3ccc(C(N)=O)cc3)n2)cc(OC)c1OC` came in with an IC50 of 38.2 µM.

The target in another experiment is Serine/threonine-protein kinase B-raf (Homo sapiens, UniProt P15056, V600E).
Serine/threonine-protein kinase B-raf, sequence (P15056 2-766 V600E limits assumed): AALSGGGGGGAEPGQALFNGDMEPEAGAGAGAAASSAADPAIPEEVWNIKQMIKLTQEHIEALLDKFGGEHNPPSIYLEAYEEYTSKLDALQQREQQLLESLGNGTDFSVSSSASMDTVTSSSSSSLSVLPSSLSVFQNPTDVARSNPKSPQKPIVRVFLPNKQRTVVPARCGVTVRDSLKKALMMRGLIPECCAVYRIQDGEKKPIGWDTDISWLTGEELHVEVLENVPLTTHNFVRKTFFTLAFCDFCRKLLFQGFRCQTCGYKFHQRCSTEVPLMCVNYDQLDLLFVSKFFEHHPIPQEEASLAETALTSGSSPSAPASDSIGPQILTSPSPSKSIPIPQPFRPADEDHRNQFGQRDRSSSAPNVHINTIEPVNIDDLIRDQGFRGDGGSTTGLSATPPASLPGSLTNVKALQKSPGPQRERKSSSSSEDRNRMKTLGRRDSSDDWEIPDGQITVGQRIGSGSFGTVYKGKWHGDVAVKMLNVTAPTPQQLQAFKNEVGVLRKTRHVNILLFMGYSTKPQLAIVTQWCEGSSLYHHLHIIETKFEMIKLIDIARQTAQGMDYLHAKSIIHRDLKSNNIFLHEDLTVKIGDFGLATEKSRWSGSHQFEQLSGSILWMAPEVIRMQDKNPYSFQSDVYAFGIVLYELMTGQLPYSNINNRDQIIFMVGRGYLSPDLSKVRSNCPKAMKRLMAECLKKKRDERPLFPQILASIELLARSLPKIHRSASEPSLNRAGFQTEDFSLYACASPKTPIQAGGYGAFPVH
Description: Inhibition of human BRAF V600E mutant expressed in SF9 cells
As for `COc1cc(Nc2cncc(Oc3ccc4c(c3)CCC4=O)n2)cc(OC)c1OC`, the IC50 came to 70 µM.

On to `COc1cc(Nc2cncc(Oc3ccccc3)n2)cc(OC)c1OC`, for which the IC50 was 31 µM. This IC50 is about 2.3-fold lower than that of the compound before.

`COc1cc(Nc2cncc(Oc3cccc4[nH]ccc34)n2)cc(OC)c1OC` returned an IC50 of 7.4 µM.

For the compound `COc1cc(Nc2cncc(Oc3cccc(NC(C)=O)c3)n2)cc(OC)c1OC`, the IC50 came to 13 µM. Against the preceding compound, the IC50 is about 1.8-fold higher.

Consider `COc1cc(Nc2cncc(-c3cccc(NC(C)=O)c3)n2)cc(OC)c1OC`, for which inhibition was half-maximal at 3.5 µM (IC50).

The compound `COc1cc(Nc2cncc(-c3ccc(NC(=O)Nc4ccccc4)cc3)n2)cc(OC)c1OC` had an IC50 of 1.16 µM.

`COc1cc(Nc2cncc(Nc3ccc(F)cc3)n2)cc(OC)c1OC` yielded an IC50 of 19 µM.

Regarding `COc1cc(Nc2cncc(Oc3ccc4c(c3)CCC/C4=N\O)n2)cc(OC)c1OC`, the IC50 came to 92 µM.

`COc1cc(Nc2cncc(Oc3ccc4c(c3)/C(=N/O)CC4)n2)cc(OC)c1OC` displayed an IC50 of 86 µM.

Consider `COc1cc(Nc2cncc(Oc3cccc4ccccc34)n2)cc(OC)c1OC`, for which the IC50 turned out to be 1.2 µM.

In the case of `COc1cc(Nc2cncc(Oc3ccc(NC(C)=O)c4ccccc34)n2)cc(OC)c1OC`, the IC50 was found to be 0.56 µM. This IC50 lies about 2.1-fold lower than the previous one.

For the compound `COc1cc(Nc2cncc(Oc3cccc(C(C)=O)c3)n2)cc(OC)c1OC`, it took 19 µM to reach half-maximal inhibition (IC50).

As to `COc1cc(Nc2cncc(Oc3cccc4c3CCC4=O)n2)cc(OC)c1OC`, the IC50 was 18 µM.

As to `COc1cc(Nc2cncc(Oc3ccc4ccccc4c3)n2)cc(OC)c1OC`, the IC50 was over 100 µM.

In turn, `COc1cc(Nc2cncc(Sc3cccc4ccccc34)n2)cc(OC)c1OC` displayed an IC50 of 9.8 µM.

`COc1cc(Nc2cncc(Oc3cccc(Cl)c3)n2)cc(OC)c1OC` had an IC50 of 36 µM. This IC50 lies about 3.7-fold higher than the previous one.

As to `COc1cc(Nc2cncc(-c3cccc(C#N)c3)n2)cc(OC)c1OC`, the IC50 is 9.8 µM.

In turn, `CC(=O)Nc1cccc2c(Oc3cncc(Nc4cccc(-c5cnco5)c4)n3)cccc12` displayed an IC50 of 0.65 µM.

In turn, `COc1cc(Nc2cncc(Oc3cccc4ncccc34)n2)cc(OC)c1OC` came in with an IC50 of 10 µM.

`COc1cc(Nc2cncc(Oc3ccc4c(c3)C(=O)CC4)n2)cc(OC)c1OC` gave an IC50 of 22 µM. This IC50 lies about 2.2-fold higher than the previous one.

`COc1cc(Nc2cncc(Oc3ccccc3F)n2)cc(OC)c1OC` gave an IC50 of 45 µM. This IC50 is about 2-fold higher than that of the compound before.

`COc1cc(Nc2cncc(Oc3cccc4c(NC(C)=O)cccc34)n2)cc(OC)c1OC`: the midpoint of inhibition, the IC50, lay at 0.41 µM. Against the preceding compound, the IC50 is about 110-fold lower.

`COc1cc(Nc2cncc(Oc3ccc4c(c3)OC(=O)CC4)n2)cc(OC)c1OC` showed an IC50 of 44 µM.

In turn, `COc1cc(Nc2cncc(Oc3cccc4c3CCCC4=O)n2)cc(OC)c1OC` came in with an IC50 of 29 µM.

With `COc1cc(Nc2cncc(-c3cccnc3)n2)cc(OC)c1OC`, 22 µM corresponded to half-maximal inhibition (IC50).

The compound `COc1cc(Nc2cncc(Nc3ccncc3)n2)cc(OC)c1OC` came in with a half-inhibitory concentration (IC50) of 4.7 µM.

As to `COc1cc(Nc2cncc(-c3ccc(C=O)cc3)n2)cc(OC)c1OC`, it took 3 µM to reach half-maximal inhibition (IC50).

As to `COc1cc(Nc2cncc(Oc3ccnc4ccccc34)n2)cc(OC)c1OC`, the IC50 stood at 1.5 µM.

The compound `COc1cc(Nc2cncc(Oc3ccc4ncccc4c3)n2)cc(OC)c1OC` had an IC50 of 29 µM. This IC50 lies about 19-fold higher than the previous one.

`COc1cc(Nc2cncc(-c3cccc(O)c3)n2)cc(OC)c1OC` yielded an IC50 of 4 µM. This IC50 lies about 7.2-fold lower than the previous one.

As to `CC(=O)Nc1cccc2c(Oc3cncc(Nc4ccc5c(c4)C(=O)OC5)n3)cccc12`, the IC50 turned out to be 2.5 µM.

As for `COc1cc(Nc2nc(-c3cccc(NC(C)=O)c3)cnc2NC(C)=O)cc(OC)c1OC`, the IC50 is over 100 µM.

Regarding `COc1cc(Nc2cncc(-c3ccc(O)cc3)n2)cc(OC)c1OC`, inhibition was half-maximal at 18 µM (IC50).

Compound `COc1cc(Nc2cncc(Oc3ccncc3)n2)cc(OC)c1OC` had an IC50 of 16 µM.

`COc1cc(Nc2cncc(Oc3ccc(NC(C)=O)cc3)n2)cc(OC)c1OC` gave an IC50 of 5.5 µM.

`COc1cc(Nc2cncc(Oc3cccc4cnccc34)n2)cc(OC)c1OC` displayed an IC50 of 3.8 µM.

With `CC(=O)Nc1ccc(Oc2cncc(Nc3cccc(-c4cnco4)c3)n2)c2ccccc12`, it took 0.31 µM to reach half-maximal inhibition (IC50).

With `COc1cc(Nc2cncc(Nc3ccc(NC(C)=O)cc3)n2)cc(OC)c1OC`, inhibition was half-maximal at 16 µM (IC50). This IC50 lies about 52-fold higher than the previous one.

On to `COc1cc(Nc2cncc(Oc3ccc(C(C)=O)cc3)n2)cc(OC)c1OC`, for which the IC50 amounted to 34 µM.

In turn, `COc1cc(Nc2cncc(-c3ccc(C(N)=O)cc3)n2)cc(OC)c1OC` yielded an IC50 of 1.12 µM.

`COc1cc(Nc2cncc(Nc3cccc(F)c3)n2)cc(OC)c1OC` gave an IC50 of 12 µM.

Turning to `COc1cc(Nc2cncc(Oc3cccc4c3CCCC4)n2)cc(OC)c1OC`, the IC50 was found to be 18 µM. This IC50 lies about 1.5-fold higher than the previous one.

`COc1cc(Nc2cncc(Nc3ccccc3)n2)cc(OC)c1OC` came in with an IC50 of 16 µM.

The compound `COc1cc(Nc2cncc(Nc3cccc(NC(C)=O)c3)n2)cc(OC)c1OC` had an IC50 of 14 µM.

`COc1cc(Nc2cncc(-c3cccc(NC(C)=O)c3)c2)cc(OC)c1OC` had a half-inhibitory concentration (IC50) of 26 µM.

`CCOC(=O)c1cccc(-c2cncc(Nc3cc(OC)c(OC)c(OC)c3)n2)c1` yielded an IC50 of 14 µM.

As for `COc1cc(Nc2cncc(Oc3ccccc3-c3ccccc3)n2)cc(OC)c1OC`, half-maximal inhibition (IC50) required 10 µM.

In turn, `COc1cc(Nc2cncc(-c3ccc(CO)cc3)n2)cc(OC)c1OC` registered an IC50 of 26 µM.

As for `COc1cc(Nc2cncc(Nc3ccc(O)cc3)n2)cc(OC)c1OC`, half-maximal inhibition (IC50) was put at 4.9 µM. This IC50 is about 5.3-fold lower than that of the compound before.

Turning to `COc1cc(Nc2cncc(Oc3ccc(/C(C)=N/O)cc3)n2)cc(OC)c1OC`, the IC50 is 26 µM.

On to `COc1cc(Nc2cncc(Oc3cccc4c3CC/C4=N\O)n2)cc(OC)c1OC`, for which the IC50 was determined as 1.4 µM. Against the preceding compound, the IC50 is about 19-fold lower.

`COc1cc(Nc2cncc(Oc3cccc(F)c3)n2)cc(OC)c1OC` showed an IC50 of 56 µM.

In turn, `COc1cc(Nc2cncc(Oc3cccc(/C(C)=N/O)c3)n2)cc(OC)c1OC` came in with an IC50 of 11 µM. This IC50 lies about 5.1-fold lower than the previous one.

Compound `COc1cc(Nc2cncc(-c3ccncc3)n2)cc(OC)c1OC` had an IC50 of 2.9 µM.

For the compound `COc1cc(Nc2cncc(Oc3cccnc3)n2)cc(OC)c1OC`, the IC50 amounted to 45 µM.

Consider `COc1cc(Nc2cncc(Oc3ccc4c(c3)CCCC4=O)n2)cc(OC)c1OC`, for which the IC50 is 76 µM.
